Earlier results in patent US5798310A, “Glyphosate compositions and their use” (Monsanto Europe S.A., priority 1995, dated 1998).

Details: literature

Compound | effect on herbicidal activity of glyphosate
N#CS [ammonium thiocyanate] | further enhance the herbicidal activity
N.N.O=S(=O)(O)O [ammonium sulphate] | further enhance the herbicidal activity
